Measured values reported in US20160235752A1, “COMPOSITIONS, METHODS OF USE, AND METHODS OF TREATMENT” (THE UNIVERSITY OF NEW ORLEANS, priority 2013, published 2016).
Values after ≈ are worked out from the molar mass of the structure shown.

What was measured:
[1] = tested on: Candida albicans (ATCC no. 10231); assay: MIC determination by broth microdilution (NCCLS), visual scoring; type: cell-based; conditions: for MIC80: Candida albicans, ATCC10231, read-out: MIC80 C. albicans
Procedure: The antifungal activity of the 2,4,6-pyrimidinetrione analogs shown in Schemes 2-6 were evaluated in vitro using Candida albicans (ATCC no. 10231) and Candida glabrata (ATCC no 48435). All assays were done in accordance with NCCLS reference documents^29.
(§1) Master stock concentrations of all tested compounds were prepared to ensure that the maximum final concentration of DMSO was 1% or less. Subsequent 2-fold serial dilutions were made using sterile water to a final concentration of 1280-5.00 μg/ml. A final 10-fold dilution of each drug was made by aliquotting 0.1 mL of each drug dilution into 0.9 mL of fungal suspension in RPMI 1640 media with 10 mM HEPES buffer added (see methodology below), giving final concentrations tested in the range of 128-0.5 μg/ml.
(§2) Antifungal susceptibility studies and minimal inhibitory concentrations (MIC) values for Candida albicans (ATCC no. 10231) and Candida glabrata (ATCC no. 48435) were determined by the broth microdilution technique in accordance with NCCLS reference documents. Microdilution panels ranged from 0.5 to 128 μg/mL. All organisms were subcultured on Sabouraud agar and passaged to ensure purity and viability. The initiating inocula were prepared by picking 5-7 isolated colonies ˜1 mm in diameter from freshly prepared YM agar plates. Colonies were resuspended in sterile water, vortexed and the cell density was adjusted spectrophotometrically to the transmittance of a 0.5 McFarland standard at a wavelength of 530 nm, to yield a stock suspension of 1×10^6-5×10^6 cells/mL. The stock was allowed to hydrate for 30 minutes at room temperature. A working suspension was then made by diluting the stock 1:50 with RPMI 1640 media containing HEPES buffer. The working suspension was used for all assays. The plates were incubated at 35° C. for 48-72 hours in a humid atmosphere. Growth was scored visually. MIC values are defined as the lowest concentration of agent that prevents any discernible growth, ˜80% reduction of growth, as compared with drug-free control wells. All assays were run in parallel using either fluconazole or amphotericin B at the NCCLS recommended concentrations^29 as a drug control (Sigma-Aldrich).

[2] = tested on: Candida glabrata (ATCC no. 48435); assay: as above; type: cell-based; conditions: for MIC80: Nakaseomyces glabratus, ATCC48435, read-out: MIC80 C. glabrata
Procedure: The antifungal activity of the 2,4,6-pyrimidinetrione analogs shown in Schemes 2-6 were evaluated in vitro using Candida albicans (ATCC no. 10231) and Candida glabrata (ATCC no 48435). All assays were done in accordance with NCCLS reference documents^29. The results of these screenings are summarized in Tables 1-9 as the minimal inhibitory concentrations that inhibited more than 80% fungal growth as compared to the positive controls in 1% DMSO and RPMI media. All MIC screens were done using a visual scoring method as opposed to spectroscopic methods of analysis, due to the physical properties of many of the compounds altering their absorbance spectra relative to the positive, negative and drug controls.
as §1, with “None of the compounds tested over the course of these studies were soluble in water and DMSO was used to dilute each compound tested. Master” for “Master”
as §2

[3] = Table 1, 5-Acyl-2,4,6-pyrimidinetriones, >80% growth inhibition, RPMI, 1% DMSO
[4] = Table 7, Phenylhydrazones of 5-Acylpyrimidinetriones

Question: How did the “MIC80 C. albicans” value [1, 3] turn out when `CN1C(=O)C(C(=O)c2cc([N+](=O)[O-])cc([N+](=O)[O-])c2)C(=O)N(C)C1=O` [BA9] was run?
Answer: Its value is “— (none of the 5-acyl-2,4,6-pyrimidinetriones, 5-alkylated pyrimidinetriones or the 5,5-dialkylated pyrimidinetriones showed antifungal activity through 125 μg/mL)”.

Question: And the “MIC80 C. glabrata” value [2, 3]?
Answer: Its value is “— (none of the 5-acyl-2,4,6-pyrimidinetriones, 5-alkylated pyrimidinetriones or the 5,5-dialkylated pyrimidinetriones showed antifungal activity through 125 μg/mL)”.

Question: For `O=C1NC(=O)C(C(=O)c2ccc(O)cc2)C(=O)N1` [BA10], which “MIC80 C. albicans” value [1, 3] is on record?
Answer: The value was “— (none of the 5-acyl-2,4,6-pyrimidinetriones, 5-alkylated pyrimidinetriones or the 5,5-dialkylated pyrimidinetriones showed antifungal activity through 125 μg/mL)”.

Question: What about the “MIC80 C. glabrata” value [2, 3] of the same compound?
Answer: Its value is “— (none of the 5-acyl-2,4,6-pyrimidinetriones, 5-alkylated pyrimidinetriones or the 5,5-dialkylated pyrimidinetriones showed antifungal activity through 125 μg/mL)”.

Question: `CN1C(=O)C(C(=O)c2ccc(O)cc2)C(=O)N(C)C1=O` [BA11] was tested. Which “MIC80 C. albicans” value [1, 3] did it give?
Answer: Its value is “— (none of the 5-acyl-2,4,6-pyrimidinetriones, 5-alkylated pyrimidinetriones or the 5,5-dialkylated pyrimidinetriones showed antifungal activity through 125 μg/mL)”.

Question: And the “MIC80 C. glabrata” value [2, 3]?
Answer: The value was “— (none of the 5-acyl-2,4,6-pyrimidinetriones, 5-alkylated pyrimidinetriones or the 5,5-dialkylated pyrimidinetriones showed antifungal activity through 125 μg/mL)”.

Question: `CCCCN1C(=O)NC(=O)C(C(=O)c2ccc(O)cc2)C1=O` (centres unmarked) [BA12] was tested. Which “MIC80 C. albicans” value [1, 3] did it give?
Answer: Its value is “— (none of the 5-acyl-2,4,6-pyrimidinetriones, 5-alkylated pyrimidinetriones or the 5,5-dialkylated pyrimidinetriones showed antifungal activity through 125 μg/mL)”.

Question: What about the “MIC80 C. glabrata” value [2, 3] of the same compound?
Answer: Its value is “— (none of the 5-acyl-2,4,6-pyrimidinetriones, 5-alkylated pyrimidinetriones or the 5,5-dialkylated pyrimidinetriones showed antifungal activity through 125 μg/mL)”.

Question: `O=C1NC(=O)N(c2ccccc2)C(=O)C1C(=O)c1ccc(O)cc1` (centres unmarked) [BA13] was tested. Which “MIC80 C. albicans” value [1, 3] did it give?
Answer: The value was “— (none of the 5-acyl-2,4,6-pyrimidinetriones, 5-alkylated pyrimidinetriones or the 5,5-dialkylated pyrimidinetriones showed antifungal activity through 125 μg/mL)”.

Question: And the “MIC80 C. glabrata” value [2, 3]?
Answer: Its value is “— (none of the 5-acyl-2,4,6-pyrimidinetriones, 5-alkylated pyrimidinetriones or the 5,5-dialkylated pyrimidinetriones showed antifungal activity through 125 μg/mL)”.

Question: With `COc1ccc(C(=O)C2C(=O)NC(=O)NC2=O)cc1` [BA14] as the compound, how does the “MIC80 C. albicans” value [1, 3] read?
Answer: Its value is “— (none of the 5-acyl-2,4,6-pyrimidinetriones, 5-alkylated pyrimidinetriones or the 5,5-dialkylated pyrimidinetriones showed antifungal activity through 125 μg/mL)”.

Question: And the “MIC80 C. glabrata” value [2, 3]?
Answer: The value was “— (none of the 5-acyl-2,4,6-pyrimidinetriones, 5-alkylated pyrimidinetriones or the 5,5-dialkylated pyrimidinetriones showed antifungal activity through 125 μg/mL)”.

Question: For `COc1ccc(C(=O)C2C(=O)N(C)C(=O)N(C)C2=O)cc1` [BA15], which “MIC80 C. albicans” value [1, 3] is on record?
Answer: Its value is “— (none of the 5-acyl-2,4,6-pyrimidinetriones, 5-alkylated pyrimidinetriones or the 5,5-dialkylated pyrimidinetriones showed antifungal activity through 125 μg/mL)”.

Question: What about the “MIC80 C. glabrata” value [2, 3] of the same compound?
Answer: Its value is “— (none of the 5-acyl-2,4,6-pyrimidinetriones, 5-alkylated pyrimidinetriones or the 5,5-dialkylated pyrimidinetriones showed antifungal activity through 125 μg/mL)”.

Question: `CCCCN1C(=O)NC(=O)C(C(=O)c2ccc(OC)cc2)C1=O` (centres unmarked) [BA16] was tested. Which “MIC80 C. albicans” value [1, 3] did it give?
Answer: Its value is “— (none of the 5-acyl-2,4,6-pyrimidinetriones, 5-alkylated pyrimidinetriones or the 5,5-dialkylated pyrimidinetriones showed antifungal activity through 125 μg/mL)”.

Question: And the “MIC80 C. glabrata” value [2, 3]?
Answer: Its value is “— (none of the 5-acyl-2,4,6-pyrimidinetriones, 5-alkylated pyrimidinetriones or the 5,5-dialkylated pyrimidinetriones showed antifungal activity through 125 μg/mL)”.

Question: `CN1C(=O)C(C(=O)c2cccnc2)C(=O)N(C)C1=O` [BA17] was tested. Which “MIC80 C. albicans” value [1, 3] did it give?
Answer: The value was “— (none of the 5-acyl-2,4,6-pyrimidinetriones, 5-alkylated pyrimidinetriones or the 5,5-dialkylated pyrimidinetriones showed antifungal activity through 125 μg/mL)”.

Question: What about the “MIC80 C. glabrata” value [2, 3] of the same compound?
Answer: The value was “— (none of the 5-acyl-2,4,6-pyrimidinetriones, 5-alkylated pyrimidinetriones or the 5,5-dialkylated pyrimidinetriones showed antifungal activity through 125 μg/mL)”.

Question: With `O=CC1C(=O)NC(=O)NC1=O` [BA18] as the compound, how does the “MIC80 C. albicans” value [1, 3] read?
Answer: The value was “— (none of the 5-acyl-2,4,6-pyrimidinetriones, 5-alkylated pyrimidinetriones or the 5,5-dialkylated pyrimidinetriones showed antifungal activity through 125 μg/mL)”.

Question: What about the “MIC80 C. glabrata” value [2, 3] of the same compound?
Answer: Its value is “— (none of the 5-acyl-2,4,6-pyrimidinetriones, 5-alkylated pyrimidinetriones or the 5,5-dialkylated pyrimidinetriones showed antifungal activity through 125 μg/mL)”.

Question: What does the source list for `CN1C(=O)C(C=O)C(=O)N(C)C1=O` [BA19, 1,3-dimethyl-2,4,6-trioxohexahydropyrimidine-5-carbaldehyde]?
Answer: MIC80 [1]: > 125 µg/mL; MIC80 [2]: > 125 µg/mL

Question: How did the MIC80 [1] turn out when `CC(=O)C1C(=O)NC(=O)NC1=O` [BA20] was run?
Answer: Its MIC80 is over 125 µg/mL.

Question: And the MIC80 [2]?
Answer: The MIC80 was over 125 µg/mL.

Question: With `CC(=O)C1C(=O)NC(=O)N(c2ccccc2)C1=O` (centres unmarked) [BA21] as the compound, how does the “MIC80 C. albicans” value [1, 3] read?
Answer: The value was “— (none of the 5-acyl-2,4,6-pyrimidinetriones, 5-alkylated pyrimidinetriones or the 5,5-dialkylated pyrimidinetriones showed antifungal activity through 125 μg/mL)”.

Question: What about the “MIC80 C. glabrata” value [2, 3] of the same compound?
Answer: Its value is “— (none of the 5-acyl-2,4,6-pyrimidinetriones, 5-alkylated pyrimidinetriones or the 5,5-dialkylated pyrimidinetriones showed antifungal activity through 125 μg/mL)”.

Question: With `CN1C(=O)C(/C=N/Nc2ccc([N+](=O)[O-])cc2)C(=O)N(C)C1=O` [BA23, 1,3-Dimethyl-5-{(E)-[2-(4-nitrophenyl)hydrazinylidene]methyl}pyrimidine-2,4,6-trione] as the compound, how does the MIC80 [1] read?
Answer: The MIC80 was 2 µg/mL (≈ 6.26 µM).

Question: And the MIC80 [2]?
Answer: Its MIC80 is 2 µg/mL (≈ 6.26 µM).

Question: Which results are given for `O=C1NC(=O)C(/C=N/Nc2ccc([N+](=O)[O-])cc2[N+](=O)[O-])C(=O)N1` [BA24, 5-{(E)-[2-(2,4-Dinitrophenyl)hydrazinylidene]methyl}pyrimidine-2,4,6-trione]?
Answer: MIC80 [1]: > 125 µg/mL; MIC80 [2]: 125 µg/mL (≈ 372 µM)

Question: Which results are given for `C/C(=N\Nc1ccc([N+](=O)[O-])cc1[N+](=O)[O-])C1C(=O)NC(=O)NC1=O` [BA26, 5-{(1E)-1-[2-(2,4-Dinitrophenyl)hydrazinylidene]ethyl}pyrimidine-2,4,6-trione]?
Answer: MIC80 [1]: > 125 µg/mL; MIC80 [2]: > 125 µg/mL

Question: Which results are given for `C/C(=N\Nc1ccc([N+](=O)[O-])cc1[N+](=O)[O-])C1C(=O)N(C)C(=O)N(C)C1=O` [BA27, 5-{(1E)-1-[2-(2,4-dinitrophenyl)hydrazinylidene]ethyl}-1,3-dimethylpyrimidine-2,4,6-trione]?
Answer: MIC80 [1]: > 125 µg/mL; MIC80 [2]: > 125 µg/mL

Question: Which results are given for `C/C(=N\CCCCCC(=O)O)C1C(=O)NC(=O)NC1=O` [BA29, 6-{(E)-[1-(2,4,6-trioxohexahydropyrimidin-5-yl)ethylidene]amino}hexanoic acid]?
Answer: MIC80 [1]: > 125 µg/mL; MIC80 [2]: > 125 µg/mL

Question: `O=C1NC(=O)C(/C(=N/Nc2ccc([N+](=O)[O-])cc2[N+](=O)[O-])c2ccccc2)C(=O)N1` [BA30, 5-[(Z)-[2-(2,4-Dinitrophenyl)hydrazinylidene](phenyl)methyl]pyrimidine-2,4,6-trione] was tested. Which MIC80 [1] did it give?
Answer: The MIC80 was over 125 µg/mL.

Question: And the MIC80 [2]?
Answer: The MIC80 was over 125 µg/mL.

Question: For `CCCCN1C(=O)NC(=O)C(C(=NNc2ccc([N+](=O)[O-])cc2[N+](=O)[O-])c2ccccc2)C1=O` (centres unmarked) [BA31], which “MIC80 C. albicans” value [1, 4] is on record?
Answer: Its value is “— (none of the 5-acyl-2,4,6-pyrimidinetriones, 5-alkylated pyrimidinetriones or the 5,5-dialkylated pyrimidinetriones showed antifungal activity through 125 μg/mL)”.

Question: What about the “MIC80 C. glabrata” value [2, 4] of the same compound?
Answer: Its value is “— (none of the 5-acyl-2,4,6-pyrimidinetriones, 5-alkylated pyrimidinetriones or the 5,5-dialkylated pyrimidinetriones showed antifungal activity through 125 μg/mL)”.

Question: Which “MIC80 C. albicans” value [1, 4] does the source give for `O=C1NC(=O)N(c2ccccc2)C(=O)C1C(=NNc1ccc([N+](=O)[O-])cc1[N+](=O)[O-])c1ccccc1` (centres unmarked) [BA32] here?
Answer: The value was “— (none of the 5-acyl-2,4,6-pyrimidinetriones, 5-alkylated pyrimidinetriones or the 5,5-dialkylated pyrimidinetriones showed antifungal activity through 125 μg/mL)”.

Question: And the “MIC80 C. glabrata” value [2, 4]?
Answer: The value was “— (none of the 5-acyl-2,4,6-pyrimidinetriones, 5-alkylated pyrimidinetriones or the 5,5-dialkylated pyrimidinetriones showed antifungal activity through 125 μg/mL)”.

Question: How did the “MIC80 C. albicans” value [1, 4] turn out when `CN1C(=O)C(C(=NNc2ccc(C(=O)O)cc2)c2ccccc2)C(=O)N(C)C1=O` [BA33] was run?
Answer: The value was “— (none of the 5-acyl-2,4,6-pyrimidinetriones, 5-alkylated pyrimidinetriones or the 5,5-dialkylated pyrimidinetriones showed antifungal activity through 125 μg/mL)”.

Question: And the “MIC80 C. glabrata” value [2, 4]?
Answer: The value was “— (none of the 5-acyl-2,4,6-pyrimidinetriones, 5-alkylated pyrimidinetriones or the 5,5-dialkylated pyrimidinetriones showed antifungal activity through 125 μg/mL)”.
